In patent US20260137819A1 (Radionetics Oncology, Inc., priority 2022, published 2026):
Read-outs that look alike come from different tables or passages of the source.

Biological target: T1, human follicle-stimulating hormone receptor (FSHR) (Homo sapiens, UniProt P23945)
T1 construct: host or cells: CHO-K1
T1 sequence (P23945 18-695): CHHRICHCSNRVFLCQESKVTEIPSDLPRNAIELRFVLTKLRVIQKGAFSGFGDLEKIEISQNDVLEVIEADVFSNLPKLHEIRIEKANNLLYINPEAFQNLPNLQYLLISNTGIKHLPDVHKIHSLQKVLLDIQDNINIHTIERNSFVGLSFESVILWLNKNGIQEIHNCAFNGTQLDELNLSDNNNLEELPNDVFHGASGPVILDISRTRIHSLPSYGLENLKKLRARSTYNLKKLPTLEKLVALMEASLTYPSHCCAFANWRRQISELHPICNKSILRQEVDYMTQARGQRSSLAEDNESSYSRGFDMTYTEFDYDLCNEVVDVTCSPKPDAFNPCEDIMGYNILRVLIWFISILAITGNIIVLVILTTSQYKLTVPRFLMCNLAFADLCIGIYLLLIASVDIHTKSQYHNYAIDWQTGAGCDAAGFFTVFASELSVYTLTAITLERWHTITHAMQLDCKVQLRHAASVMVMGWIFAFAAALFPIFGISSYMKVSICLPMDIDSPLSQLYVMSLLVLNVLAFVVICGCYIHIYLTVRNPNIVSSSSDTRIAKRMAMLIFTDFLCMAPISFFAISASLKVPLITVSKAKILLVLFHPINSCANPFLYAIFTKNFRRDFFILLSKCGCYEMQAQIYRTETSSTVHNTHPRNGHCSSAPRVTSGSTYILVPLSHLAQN
Assay: Measurement of agonist cAMP production by activation of human FSHR
Format: cell-based
Settings: 30 minutes at 37° C., HTRF cAMP kit
Outline: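 cAMP output was measured by HTRF after 30 min at 37 °C agonist exposure (0–10,000 nM final) in stably FSHR-transfected CHO-K1 cells. Lysate cAMP was read off a standard curve and fitted to obtain half-maximal EC50.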

[1] = CHO-K1 human FSHR cells, read-out: hFSHR Agonist cAMP EC50

Row | SMILES | EC50 [1] | EC50 (hFSHR Agonist cAMP EC50, CHO-K1 human FSHR cells)
1 | COc1cc2c(cc1-c1cncc(NC(=O)CCNC(=O)[C@@H](CCCCNC(=O)CN3CCN(CC(=O)O)CCN(CC(=O)O)CCN(CC(=O)O)CC3)NC(=O)CN3CCN(CCS(=O)(=O)O)CC3)c1)-c1c(c(C(=O)N3CCOCC3(C)C)nn1-c1cc(F)cc(F)c1)CO2 [Compound 50, (R)-2,2′,2″-(10-(2-((6-((3-((5-(1-(3,5-difluorophenyl)-3-(3,3-dimethylmorpholine-4-carbonyl)-7-methoxy-1,4-dihydrochromeno[4,3-c]pyrazol-8-yl)pyridin-3-yl)amino)-3-oxopropyl)amino)-6-oxo-5-(2-(4-(2-sulfoethyl)piperazin-1-yl)acetamido)hexyl)amino)-2-oxoethyl)-1,4,7,10-tetraazacyclododecane-1,4,7-triyl)triacetic acid--formic acid (1/1)] |  | > 100 nM
2 | COc1cc2c(cc1-c1cccc(NC(=O)CCC(=O)NCCCC[C@@H](NC(=O)[C@@H](CC(=O)O)NC(=O)[C@@H](CC(=O)O)NC(=O)CCNC(=O)CN3CCN(CC(=O)O)CCN(CC(=O)O)CCN(CC(=O)O)CC3)C(N)=O)c1)-c1c(c(C(=O)N3CCOCC3(C)C)nn1-c1cc(Cl)cc(Cl)c1)CO2 [Compound 51, 2,2′,2″-(10-((8R,11R,14R)-14-carbamoyl-8,11-bis(carboxymethyl)-23-((3-(1(3,5-dichlorophenyl)-3-(3,3-dimethylmorpholine-4-carbonyl)-7-methoxy-1,4-dihydrochromeno[4,3-c]pyrazol-8-yl)phenyl)amino)-2,6,9,12,20,23-hexaoxo-3,7,10,13,19-pentaazatricosyl)-1,4,7,10-tetraazacyclododecane-1,4,7-triyl)triacetic acid] | < 10 nM | 
3 | COc1cc2c(cc1-c1cncc(NC(=O)CCOCCOCCNC(=O)CN3CCN(CC(=O)O)CCN(CC(=O)O)CCN(CC(=O)O)CC3)c1)-c1c(c(C(=O)N3CCOCC3(C)C)nn1-c1cc(Cl)cc(Cl)c1)CO2 [Compound 52, 2,2′,2″-(10-(2-((2-(2-(3-((5-(1-(3,5-dichlorophenyl)-3-(3,3-dimethylmorpholine-4-carbonyl)-7-methoxy-1,4-dihydrochromeno[4,3-c]pyrazol-8-yl)pyridin-3-yl)amino)-3-oxopropoxy)ethoxy)ethyl)amino)-2-oxoethyl)-1,4,7,10-tetraazacyclododecane-1,4,7-triyl)triacetic acid--2,2,2-trifluoroacetic acid (1/1)] | < 10 nM | 
4 | COc1cc2c(cc1-c1cncc(NC(=O)CCOCCNC(=O)CN3CCN(CC(=O)O)CCN(CC(=O)O)CCN(CC(=O)O)CC3)c1)-c1c(c(C(=O)N3CCOCC3(C)C)nn1-c1cc(Cl)cc(Cl)c1)CO2 [Compound 53, 2,2′,2″-(10-(2-((2-(3-((5-(1-(3,5-dichlorophenyl)-3-(3,3-dimethylmorpholine-4-carbonyl)-7-methoxy-1,4-dihydrochromeno[4,3-c]pyrazol-8-yl)pyridin-3-yl)amino)-3-oxopropoxy)ethyl)amino)-2-oxoethyl)-1,4,7,10-tetraazacyclododecane-1,4,7-triyl)triacetic acid--2,2,2-trifluoroacetic acid (1/1)] | < 10 nM | 
5 | COc1cc2c(cc1-c1cncc(NC(=O)CN(C)C(=O)CN(C)C(=O)CN(C)C(=O)CN(C)C(=O)CN(C)C(=O)CCNC(=O)CN3CCN(CC(=O)O)CCN(CC(=O)O)CCN(CC(=O)O)CC3)c1)-c1c(c(C(=O)N3CCOCC3(C)C)nn1-c1cc(F)cc(F)c1)CO2 [Compound 59] | > 100 nM | 

More lines, main results first:

Row | EC50 [1] | SMILES | EC50 (hFSHR Agonist cAMP EC50, CHO-K1 human FSHR cells)
6 | < 10 nM | COc1cc2c(cc1-c1cncc(NC(=O)CCOCCOCCNC(=O)C3OC(CNC(=O)CN4CCN(CC(=O)O)CCN(CC(=O)O)CCN(CC(=O)O)CC4)C(O)C(O)C3O)c1)-c1c(c(C(=O)N3CCOCC3(C)C)nn1-c1cc(Cl)cc(Cl)c1)CO2 [Compound 54, 2,2′,2″-(10-(2-((((2S,3R,4R,5R,6S)-6-((2-(2-(3-((5-(1-(3,5-dichlorophenyl)-3-(3,3-dimethylmorpholine-4-carbonyl)-7-methoxy-1,4-dihydrochromeno[4,3-c]pyrazol-8-yl)pyridin-3-yl)amino)-3-oxopropoxy)ethoxy)ethyl)carbamoyl)-3,4,5-trihydroxytetrahydro-2H-pyran-2-yl)methyl)amino)-2-oxoethyl)-1,4,7,10-tetraazacyclododecane-1,4,7-triyl)triacetic acid--2,2,2-trifluoroacetic acid (1/1)] | 
7 | 10 to 100 nM | COc1cc2c(cc1-c1cncc(NC(=O)CCOCCOCCNC(=O)[C@H]3O[C@@H](CNC(=O)CN4CCN(CC(=O)O)CCN(CC(=O)O)CCN(CC(=O)O)CC4)[C@H](O)[C@@H](O)[C@H]3O)c1)-c1c(c(C(=O)N3CCOCC3(C)C)nn1-c1cc(Cl)cc(Cl)c1)CO2 [Compound 54A, indium (III) 2,2′,2″-(10-(2-((((2S,3R,4R,5R,6S)-6-((2-(2-(3-((5-(1-(3,5-dichlorophenyl)-3-(3,3-dimethylmorpholine-4-carbonyl)-7-methoxy-1,4-dihydrochromeno[4,3-c]pyrazol-8-yl)pyridin-3-yl)amino)-3-oxopropoxy)ethoxy)ethyl)carbamoyl)-3,4,5-trihydroxytetrahydro-2H-pyran-2-yl)methyl)amino)-2-oxoethyl)-1,4,7,10-tetraazacyclododecane-1,4,7-triyl)triacetate] | 
8 | 10 to 100 nM | COc1cc2c(cc1-c1cncc(NC(=O)CNC(=O)CC[C@@H](NC(=O)CNC(=O)CN3CCN(CC(=O)O)CCN(CC(=O)O)CCN(CC(=O)O)CC3)C(=O)O)c1)-c1c(c(C(=O)N3CCOCC3(C)C)nn1-c1cc(Cl)cc(Cl)c1)CO2 [Compound 55, (R)-2,2′,2″-(10-(2-((2-((1-carboxy-4-((2-((5-(1-(3,5-dichlorophenyl)-3-(3,3-dimethylmorpholine-4-carbonyl)-7-methoxy-1,4-dihydrochromeno[4,3-c]pyrazol-8-yl)pyridin-3-yl)amino)-2-oxoethyl)amino)-4-oxobutyl)amino)-2-oxoethyl)amino)-2-oxoethyl)-1,4,7,10-tetraazacyclododecane-1,4,7-triyl)triacetic acid--2,2,2-trifluoroacetic acid (1/1)] | 
9 | 10 to 100 nM | COc1cc2c(cc1-c1cncc(NC(=O)CNC(=O)[C@H](CCC(=O)NC[C@H](O)[C@@H](O)[C@H](O)[C@H](O)CO)NC(=O)CN3CCN(CC(=O)O)CCN(CC(=O)O)CCN(CC(=O)O)CC3)c1)-c1c(c(C(=O)N3CCOCC3(C)C)nn1-c1cc(Cl)cc(Cl)c1)CO2 [Compound 56, 2,2′,2″-(10-(2-(((S)-1-((2-((5-(1-(3,5-dichlorophenyl)-3-(3,3-dimethylmorpholine-4-carbonyl)-7-methoxy-1,4-dihydrochromeno[4,3-c]pyrazol-8-yl)pyridin-3-yl)amino)-2-oxoethyl)amino)-1,5-dioxo-5-(((2S,3R,4R,5R)-2,3,4,5,6-pentahydroxyhexyl)amino)pentan-2-yl)amino)-2-oxoethyl)-1,4,7,10-tetraazacyclododecane-1,4,7-triyl)triacetic acid--2,2,2-trifluoroacetic acid (1/1)] | 
10 | 10 to 100 nM | COc1cc2c(cc1-c1cncc(NC(=O)CCCNC(=O)CCOCCNC(=O)CN3CCN(CC(=O)O)CCN(CC(=O)O)CCN(CC(=O)O)CC3)c1)-c1c(c(C(=O)N3CCOCC3(C)C)nn1-c1cc(F)cc(F)c1)CO2 [Compound 57, 2,2′,2″-(10-(2-((2-(3-((4-((5-(1-(3,5-difluorophenyl)-3-(3,3-dimethylmorpholine-4-carbonyl)-7-methoxy-1,4-dihydrochromeno[4,3-c]pyrazol-8-yl)pyridin-3-yl)amino)-4-oxobutyl)amino)-3-oxopropoxy)ethyl)amino)-2-oxoethyl)-1,4,7,10-tetraazacyclododecane-1,4,7-triyl)triacetic acid--2,2,2-trifluoroacetic acid (1/1)] | 
11 | 10 to 100 nM | COc1cc2c(cc1-c1cncc(NC(=O)CCCNC(=O)[C@H](N)CCCCNC(=O)CN3CCN(CC(=O)O)CCN(CC(=O)O)CCN(CC(=O)O)CC3)c1)-c1c(c(C(=O)N3CCOCC3(C)C)nn1-c1cc(F)cc(F)c1)CO2 [Compound 58, (R)-2,2′,2″-(10-(2-((5-amino-6-((4-((5-(1-(3,5-difluorophenyl)-3-(3,3-dimethylmorpholine-4-carbonyl)-7-methoxy-1,4-dihydrochromeno[4,3-c]pyrazol-8-yl)pyridin-3-yl)amino)-4-oxobutyl)amino)-6-oxohexyl)amino)-2-oxoethyl)-1,4,7,10-tetraazacyclododecane-1,4,7-triyl)triacetic acid--2,2,2-trifluoroacetic acid (1/1)] | 
12 | 10 to 100 nM | COc1cc2c(cc1-c1cncc(NC(=O)CCC(=O)N(CCOCCOCCC(=O)O)C3CCN(C(=O)CN4CCN(CC(=O)O)CCN(CC(=O)O)CCN(CC(=O)O)CC4)CC3)c1)-c1c(c(C(=O)N3CCOCC3(C)C)nn1-c1cc(F)cc(F)c1)CO2 [Compound 60, 2,2′,2″-(10-(2-(4-(N-(2-(2-(2-carboxyethoxy)ethoxy)ethyl)-4-((5-(1-(3,5-difluorophenyl)-3-(3,3-dimethylmorpholine-4-carbonyl)-7-methoxy-1,4-dihydrochromeno[4,3-c]pyrazol-8-yl)pyridin-3-yl)amino)-4-oxobutanamido)piperidin-1-yl)-2-oxoethyl)-1,4,7,10-tetraazacyclododecane-1,4,7-triyl)triacetic acid--formic acid (1/1)] | 
